According to patent publication US20250282768A1 (Janssen Pharmaceutica NV, priority 2022, published 2025):

What follows are compounds tested on p-IKKa levels in L363 (NIK translocated multiple myeloma) cells (assay: Assay 2: Effect of compounds on p-IKKa levels in L363 (NIK translocated multiple myeloma) cells). Conditions: Homo sapiens, L-363, 6 h, read-out: Assay 2 IC50 (nM), p-IKKa (Ser 176/180) in BAFF stimulated L363 cells with MG132, 6 h; average if tested more than once.
Type: cell-based
How it was run: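 L363 cells incubated overnight ± 250 ng/ml BAFF, then 6 h at 37 °C with compound (0.3% DMSO) ± 10 μM MG132. Lysates assayed for p-IKKa (Ser176/180) by AlphaLISA SureFire. IC50 from sigmoidal fit of % inhibition normalized to BAFF/MG132-stimulated and unstimulated controls.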

Question: For CN1CC[C@@](O)(c2cc(-c3cccc(-c4ccnc(Nc5nn(C)c6ncccc56)n4)c3)no2)C1=O [Example 421, (R)-3-Hydroxy-1-methyl-3-(3-(3-(2-((1-methyl-1H-pyrazolo[3,4-b]pyridin-3-yl)amino)pyrimidin-4-yl)phenyl)isoxazol-5-yl)pyrrolidin-2-one], which IC50 is on record?
Answer: > 500 nM

Question: Cc1nc(-c2ccc(Nc3nccc(-c4cccc(-c5cc([C@]6(O)CCN(C)C6=O)on5)n4)n3)nc2)n(C)n1 [Example 309, (R)-3-(3-(6-(2-((5-(1,3-Dimethyl-1H-1,2,4-triazol-5-yl)pyridin-2-yl)amino)pyrimidin-4-yl)pyridin-2-yl)isoxazol-5-yl)-3-hydroxy-1-methylpyrrolidin-2-one] was tested. Which IC50 did it give?
Answer: > 500 nM

Question: CN1CC[C@@](O)(c2cc(-c3cccc(-c4ccnc(Nc5cc(N)n(C)n5)n4)c3)no2)C1=O [Example 414, (R)-3-(3-(3-(2-((5-Amino-1-methyl-1H-pyrazol-3-yl)amino)pyrimidin-4-yl)phenyl)isoxazol-5-yl)-3-hydroxy-1-methylpyrrolidin-2-one] was tested. Which IC50 did it give?
Answer: > 500 nM

Question: How did the IC50 turn out when C[C@@H](Nc1nccc(-c2cccc(-c3cc([C@]4(O)CCN(C)C4=O)on3)n2)n1)C(=O)N1CC(C)(F)C1 [Example 177, (R)-3-(3-(6-(2-(((R)-1-(3-Fluoro-3-methylazetidin-1-yl)-1-oxopropan-2-yl)amino)pyrimidin-4-yl)pyridin-2-yl)isoxazol-5-yl)-3-hydroxy-1-methylpyrrolidin-2-one] was run?
Answer: > 500 nM

Question: How did the IC50 turn out when Cc1cc(Nc2nccc(-c3cccc(-c4cc([C@]5(O)CCN(C)C5=O)on4)n3)n2)ccn1 [Example 196, (R)-3-Hydroxy-1-methyl-3-(3-(6-(2-((2-methylpyridin-4-yl)amino)pyrimidin-4-yl)pyridin-2-yl)isoxazol-5-yl)pyrrolidin-2-one] was run?
Answer: < 50 nM

Question: How did the IC50 turn out when CN1CC[C@@](O)(c2cc(-c3cccc(-c4ccnc(Nc5cc6n(n5)CCOC6)n4)n3)no2)C1=O [Example 432, (R)-3-(3-(6-(2-((6,7-Dihydro-4H-pyrazolo[5,1-c][1,4]oxazin-2-yl)amino)pyrimidin-4-yl)pyridin-2-yl)isoxazol-5-yl)-3-hydroxy-1-methylpyrrolidin-2-one] was run?
Answer: < 50 nM

Question: How did the IC50 turn out when CN1CC[C@@](O)(c2cc(-c3cccc(-c4ccnc(-n5ccc(N)n5)n4)n3)no2)C1=O [Example 32, (R)-3-(3-(6-(2-(3-Amino-1H-pyrazol-1-yl)pyrimidin-4-yl)pyridin-2-yl)isoxazol-5-yl)-3-hydroxy-1-methylpyrrolidin-2-one] was run?
Answer: > 500 nM

Question: C[C@@H]1C[C@@](O)(c2cc(-c3cccc(-c4ccnc(Nc5cnn(C)c5)n4)n3)no2)C(=O)N1C [Example 286, (3R,5R)-3-Hydroxy-1,5-dimethyl-3-(3-(6-(2-((1-methyl-1H-pyrazol-4-yl)amino)pyrimidin-4-yl)pyridin-2-yl)isoxazol-5-yl)pyrrolidin-2-one] was tested. Which IC50 did it give?
Answer: > 500 nM

Question: With Cc1c(Nc2nccc(-c3cccc(-c4cc([C@@]5(O)C(=O)N(C)CC5(F)F)on4)n3)n2)cnn1C [Example 223, (R)-3-(3-(6-(2-((1,5-Dimethyl-1H-pyrazol-4-yl)amino)pyrimidin-4-yl)pyridin-2-yl)isoxazol-5-yl)-4,4-difluoro-3-hydroxy-1-methylpyrrolidin-2-one] as the compound, how does the IC50 read?
Answer: < 50 nM

Question: CN1CC[C@@](O)(c2cc(-c3cccc(-c4ccnc(N[C@@H](CO)c5ccccn5)n4)n3)no2)C1=O [Example 387, (R)-3-Hydroxy-3-(3-(6-(2-(((R)-2-hydroxy-1-(pyridin-2-yl)ethyl)amino)pyrimidin-4-yl)pyridin-2-yl)isoxazol-5-yl)-1-methylpyrrolidin-2-one] was tested. Which IC50 did it give?
Answer: > 500 nM

Question: CN1CC[C@@](O)(c2cc(-c3cccc(-c4ccnc(Nc5nc(CN6CCCC6)cs5)n4)n3)no2)C1=O [Example 258, (R)-3-Hydroxy-1-methyl-3-(3-(6-(2-((4-(pyrrolidin-1-ylmethyl)thiazol-2-yl)amino)pyrimidin-4-yl)pyridin-2-yl)isoxazol-5-yl)pyrrolidin-2-one] was tested. Which IC50 did it give?
Answer: < 50 nM
